Assay results as given in patent US7851474B2, “Dipiperazinyl ketones and related analogues” (Neurogen Corporation, priority 2005, dated 2010).

Molecular target: T1, chimeric human H3 receptor (Homo sapiens, UniProt Q9Y5N1, E19D)
T1 construct: made in house; host or cells: Sf9 insect cells (baculovirus infection); P2 membrane preparation
Assay: Chimeric human H3 receptor GTP binding assay (agonist-stimulated GTP-gamma35S binding, Example 7)
Format: biochemical
Details: Table II; assay of Example 7; "*" in Ki; read-out: Ki
Outline: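 IC50 values come from non-linear regression of dose-response curves of filter-bound GTP-gamma^35S, counted by scintillation. Membranes were from infected Sf9 cells carrying receptor plus G-protein subunits, 35 μg/tube, with 10 μM GDP present.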

T1 sequence (Q9Y5N1 with tags, fused parts or gaps E19D): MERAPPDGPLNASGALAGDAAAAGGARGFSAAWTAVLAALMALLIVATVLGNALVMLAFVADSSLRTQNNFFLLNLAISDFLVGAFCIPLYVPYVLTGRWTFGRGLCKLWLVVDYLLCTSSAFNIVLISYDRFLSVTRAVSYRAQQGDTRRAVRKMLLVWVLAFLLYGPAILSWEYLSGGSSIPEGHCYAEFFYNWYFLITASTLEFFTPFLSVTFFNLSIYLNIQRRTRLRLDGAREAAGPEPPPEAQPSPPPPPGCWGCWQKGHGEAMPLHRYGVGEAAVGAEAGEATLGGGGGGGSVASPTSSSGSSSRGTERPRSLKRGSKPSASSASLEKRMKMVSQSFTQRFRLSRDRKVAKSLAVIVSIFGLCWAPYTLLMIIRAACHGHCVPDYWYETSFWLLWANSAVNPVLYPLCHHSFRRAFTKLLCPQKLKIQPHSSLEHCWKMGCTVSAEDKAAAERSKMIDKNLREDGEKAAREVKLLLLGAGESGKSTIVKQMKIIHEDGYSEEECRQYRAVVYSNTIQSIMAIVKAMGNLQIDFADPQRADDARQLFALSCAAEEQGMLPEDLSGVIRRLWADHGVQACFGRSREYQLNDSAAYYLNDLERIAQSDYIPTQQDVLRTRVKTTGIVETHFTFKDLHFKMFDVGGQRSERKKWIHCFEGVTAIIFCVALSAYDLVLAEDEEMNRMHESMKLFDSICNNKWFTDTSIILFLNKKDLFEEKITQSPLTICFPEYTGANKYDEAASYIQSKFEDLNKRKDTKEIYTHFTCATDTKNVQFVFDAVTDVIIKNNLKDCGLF

Ki [nM] | Structure (SMILES)
< 1000 | CC1CCCN1C(=O)c1ccc(N2CCN(CC(=O)N3CCN(C4CCC4)CC3)CC2)nn1 (stereo not drawn) [Compound 1064, 3-{4-[2-(4-cyclobutylpiperazin-1-yl)-2-oxoethyl]piperazin-1-yl}-6-[(2-methylpyrrolidin-1-yl)carbonyl]pyridazine]
< 1000 | N#Cc1ccc(-c2cccc(N3CCN(CC(=O)N4CCN(C5CCC5)CC4)CC3)c2)cc1 [Compound 1065, 3′-{4-[2-(4-cyclobutylpiperazin-1-yl)-2-oxoethyl]piperazin-1-yl}biphenyl-4-carbonitrile]
< 1000 | CCN(C(=O)c1cccc(N2CCN(CC(=O)N3CCN(C4CCC4)CC3)CC2)c1)C(C)C [Compound 1066, 3-{4-[2-(4-cyclobutylpiperazin-1-yl)-2-oxoethyl]piperazin-1-yl}-N-ethyl-N-isopropylbenzamide]
< 1000 | CC(C)N(C)C(=O)c1cccc(N2CCN(CC(=O)N3CCN(C4CCC4)CC3)CC2)c1 [Compound 1067, 3-{4-[2-(4-cyclobutylpiperazin-1-yl)-2-oxoethyl]piperazin-1-yl}-N-isopropyl-N-methylbenzamide]
< 1000 | CN(C(=O)c1cccc(N2CCN(CC(=O)N3CCN(C4CCC4)CC3)CC2)c1)C1CCCCC1 [Compound 1068, 3-{4-[2-(4-cyclobutylpiperazin-1-yl)-2-oxoethyl]piperazin-1-yl}-N-cyclohexyl-N-methylbenzamide]
< 1000 | CCN(C(=O)c1cccc(N2CCN(CC(=O)N3CCN(C4CCC4)CC3)CC2)c1)C1CCCCC1 [Compound 1069, 3-{4-[2-(4-cyclobutylpiperazin-1-yl)-2-oxoethyl]piperazin-1-yl}-N-cyclohexyl-N-ethylbenzamide]
< 1000 | COCCN(C(=O)c1cccc(N2CCN(CC(=O)N3CCN(C4CCC4)CC3)CC2)c1)C(C)C [Compound 1070, 3-{4-[2-(4-cyclobutylpiperazin-1-yl)-2-oxoethyl]piperazin-1-yl}-N-isopropyl-N-(2-methoxyethyl)benzamide]
< 1000 | CCC(C)CNC(=O)c1cccc(N2CCN(CC(=O)N3CCN(C4CCC4)CC3)CC2)c1 (stereo not drawn) [Compound 1071, 3-{4-[2-(4-cyclobutylpiperazin-1-yl)-2-oxoethyl]piperazin-1-yl}-N-(2-methylbutyl)benzamide]
< 1000 | CCCNC(=O)c1cccc(N2CCN(CC(=O)N3CCN(C4CCC4)CC3)CC2)c1 [Compound 1072, 3-{4-[2-(4-cyclobutylpiperazin-1-yl)-2-oxoethyl]piperazin-1-yl}-N-propylbenzamide]
< 1000 | O=C(NCC1CC1)c1cccc(N2CCN(CC(=O)N3CCN(C4CCC4)CC3)CC2)c1 [Compound 1073, 3-{4-[2-(4-cyclobutylpiperazin-1-yl)-2-oxoethyl]piperazin-1-yl}-N-(cyclopropylmethyl) benzamide]
< 1000 | CC(C)CNC(=O)c1cccc(N2CCN(CC(=O)N3CCN(C4CCC4)CC3)CC2)c1 [Compound 1074, 3-{4-[2-(4-cyclobutylpiperazin-1-yl)-2-oxoethyl]piperazin-1-yl}-N-isobutylbenzamide]
< 1000 | CCCCCNC(=O)c1cccc(N2CCN(CC(=O)N3CCN(C4CCC4)CC3)CC2)c1 [Compound 1075, 3-{4-[2-(4-cyclobutylpiperazin-1-yl)-2-oxoethyl]piperazin-1-yl}-N-pentylbenzamide]
< 1000 | CC(C)CCNC(=O)c1cccc(N2CCN(CC(=O)N3CCN(C4CCC4)CC3)CC2)c1 [Compound 1076, 3-{4-[2-(4-cyclobutylpiperazin-1-yl)-2-oxoethyl]piperazin-1-yl}-N-(3-methylbutyl)benzamide]
< 1000 | O=C(NCC(F)(F)F)c1cccc(N2CCN(CC(=O)N3CCN(C4CCC4)CC3)CC2)c1 [Compound 1077, 3-{4-[2-(4-cyclobutylpiperazin-1-yl)-2-oxoethyl]piperazin-1-yl}-N-(2,2,2-trifluoroethyl)benzamide]
< 1000 | O=C(NC1CC1)c1cccc(N2CCN(CC(=O)N3CCN(C4CCC4)CC3)CC2)c1 [Compound 1078, 3-{4-[2-(4-cyclobutylpiperazin-1-yl)-2-oxoethyl]piperazin-1-yl}-N-cyclopropylbenzamide]
< 1000 | O=C(NC1CCCCC1)c1cccc(N2CCN(CC(=O)N3CCN(C4CCC4)CC3)CC2)c1 [Compound 1079, 3-{4-[2-(4-cyclobutylpiperazin-1-yl)-2-oxoethyl]piperazin-1-yl}-N-cyclohexylbenzamide]
< 1000 | CC(C)NC(=O)c1cccc(N2CCN(CC(=O)N3CCN(C4CCC4)CC3)CC2)c1 [Compound 1080, 3-{4-[2-(4-cyclobutylpiperazin-1-yl)-2-oxoethyl]piperazin-1-yl}-N-isopropylbenzamide]
< 1000 | O=C(NC1CCCC1)c1cccc(N2CCN(CC(=O)N3CCN(C4CCC4)CC3)CC2)c1 [Compound 1081, 3-{4-[2-(4-cyclobutylpiperazin-1-yl)-2-oxoethyl]piperazin-1-yl}-N-cyclopentylbenzamide]
< 1000 | CCCC(C)NC(=O)c1cccc(N2CCN(CC(=O)N3CCN(C4CCC4)CC3)CC2)c1 (stereo not drawn) [Compound 1082, 3-{4-[2-(4-cyclobutylpiperazin-1-yl)-2-oxoethyl]piperazin-1-yl}-N-(1-methylbutyl)benzamide]
< 1000 | O=C(NC1CCCCCC1)c1cccc(N2CCN(CC(=O)N3CCN(C4CCC4)CC3)CC2)c1 [Compound 1083, 3-{4-[2-(4-cyclobutylpiperazin-1-yl)-2-oxoethyl]piperazin-1-yl}-N-cycloheptylbenzamide]
< 1000 | O=C(NCC1CCCCC1)c1cccc(N2CCN(CC(=O)N3CCN(C4CCC4)CC3)CC2)c1 [Compound 1084, 3-{4-[2-(4-cyclobutylpiperazin-1-yl)-2-oxoethyl]piperazin-1-yl}-N-(cyclohexylmethyl) benzamide]
< 1000 | CC(C)(C)CNC(=O)c1cccc(N2CCN(CC(=O)N3CCN(C4CCC4)CC3)CC2)c1 [Compound 1085, 3-{4-[2-(4-cyclobutylpiperazin-1-yl)-2-oxoethyl]piperazin-1-yl}-N-(2,2-dimethylpropyl) benzamide]
< 1000 | CCC(CC)CNC(=O)c1cccc(N2CCN(CC(=O)N3CCN(C4CCC4)CC3)CC2)c1 [Compound 1086, 3-{4-[2-(4-cyclobutylpiperazin-1-yl)-2-oxoethyl]piperazin-1-yl}-N-(2-ethylbutyl)benzamide]
< 1000 | O=C(CN1CCN(c2ccc(Cl)nn2)CC1)N1CCN(C2CCC2)CC1 [Compound 1087, 3-chloro-6-{4-[2-(4-cyclobutylpiperazin-1-yl)-2-oxoethyl]piperazin-1-yl}pyridazine]
< 1000 | O=C(CN1CCN(c2cccc(C(=O)N3CCSCC3)c2)CC1)N1CCN(C2CCC2)CC1 [Compound 1091, 4-(3-{4-[2-(4-cyclobutylpiperazin-1-yl)-2-oxoethyl]piperazin-1-yl}benzoyl) thiomorpholine]
< 1000 | CC1CN(C(=O)c2cccc(N3CCN(CC(=O)N4CCN(C5CCC5)CC4)CC3)c2)CC(C)O1 (stereo not drawn) [Compound 1092, 4-(3-{4-[2-(4-cyclobutylpiperazin-1-yl)-2-oxoethyl]piperazin-1-yl}benzoyl)-2,6-dimethylmorpholine]
< 1000 | O=C(CN1CCN(c2ccc(C(=O)N3CCOCC3)cc2)CC1)N1CCN(C2CCC2)CC1 [Compound 1093, 4-(4-{4-[2-(4-cyclobutylpiperazin-1-yl)-2-oxoethyl]piperazin-1-yl}benzoyl)morpholine]
